Values after ≈ are worked out from the molar mass of the structure shown. “Also recorded” adds a separate entry of the source. Read-outs that look alike come from different tables or passages of the source.
Key:
[1] = tested on: PfENT1-expressing fui1Δ yeast; assay: 5-FUrd inhibition of PfENT1-expressing fui1Δ yeast growth; format: cell-based; conditions: Saccharomyces cerevisiae, read-out: IC50 for inhibition of yeast growth
Property Forecast Index = format: physicochemical; conditions: chromatographic log D7.4 + aromatic ring count
PfENT1 [2] = target: T1, PfENT1 (Plasmodium falciparum, UniProt Q8IDM6); assay: Yeast Kill Assay; format: cell-based
T1 sequence (Q8IDM6 1-422): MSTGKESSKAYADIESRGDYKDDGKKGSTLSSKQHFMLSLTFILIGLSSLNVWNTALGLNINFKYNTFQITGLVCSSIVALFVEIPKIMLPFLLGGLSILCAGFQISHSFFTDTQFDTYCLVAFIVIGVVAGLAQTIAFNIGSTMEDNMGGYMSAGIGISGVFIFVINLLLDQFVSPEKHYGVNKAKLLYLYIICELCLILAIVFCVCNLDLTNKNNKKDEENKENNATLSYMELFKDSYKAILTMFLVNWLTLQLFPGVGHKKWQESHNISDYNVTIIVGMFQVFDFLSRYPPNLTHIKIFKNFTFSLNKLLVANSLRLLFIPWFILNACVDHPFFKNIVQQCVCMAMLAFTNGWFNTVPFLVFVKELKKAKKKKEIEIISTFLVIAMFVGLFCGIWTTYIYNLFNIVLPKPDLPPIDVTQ

human serum albumin = human serum albumin (Homo sapiens, UniProt P02768); assay: HSA column binding; format: in vitro ADME
human serum albumin, sequence (P02768 25-609): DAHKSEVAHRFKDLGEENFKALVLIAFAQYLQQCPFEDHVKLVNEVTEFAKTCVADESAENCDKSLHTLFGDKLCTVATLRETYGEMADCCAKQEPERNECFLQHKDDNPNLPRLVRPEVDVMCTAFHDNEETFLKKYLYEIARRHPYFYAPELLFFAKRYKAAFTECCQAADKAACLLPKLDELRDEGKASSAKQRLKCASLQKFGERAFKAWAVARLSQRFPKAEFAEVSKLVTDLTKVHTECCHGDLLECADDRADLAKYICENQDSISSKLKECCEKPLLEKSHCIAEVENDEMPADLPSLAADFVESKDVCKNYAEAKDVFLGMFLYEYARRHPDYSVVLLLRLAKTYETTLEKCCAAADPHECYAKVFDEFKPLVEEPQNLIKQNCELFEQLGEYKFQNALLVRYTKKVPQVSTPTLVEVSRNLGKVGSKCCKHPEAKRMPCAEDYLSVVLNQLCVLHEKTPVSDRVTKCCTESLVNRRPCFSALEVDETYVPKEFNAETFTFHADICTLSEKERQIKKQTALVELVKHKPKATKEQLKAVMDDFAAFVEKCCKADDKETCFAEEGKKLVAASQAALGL

PfENT1 [3] = target: T1, PfENT1; assay: [3H]adenosine uptake into PfENT1-expressing yeast; format: cell-based
hENT1 = target: T2, hENT1 (Homo sapiens, UniProt Q99808); assay: [3H]adenosine uptake into human RBC; format: cell-based; conditions: for hENT1 [3H]adenosine uptake into RBC IC50: mean ± SD, NE = no effect at 100 μM
T2 sequence (Q99808 1-456): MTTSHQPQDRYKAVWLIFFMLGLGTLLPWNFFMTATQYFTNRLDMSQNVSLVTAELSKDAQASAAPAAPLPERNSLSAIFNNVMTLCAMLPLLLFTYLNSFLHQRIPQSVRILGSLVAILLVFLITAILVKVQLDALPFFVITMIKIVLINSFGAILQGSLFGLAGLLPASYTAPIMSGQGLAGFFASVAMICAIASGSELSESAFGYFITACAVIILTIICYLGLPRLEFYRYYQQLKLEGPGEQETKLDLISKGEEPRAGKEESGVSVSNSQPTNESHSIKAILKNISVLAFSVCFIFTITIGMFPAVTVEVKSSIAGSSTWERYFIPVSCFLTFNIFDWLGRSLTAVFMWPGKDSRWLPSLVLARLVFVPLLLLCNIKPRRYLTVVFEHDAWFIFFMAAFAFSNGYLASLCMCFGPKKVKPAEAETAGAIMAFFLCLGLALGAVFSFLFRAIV

[4] = tested on: 3D7 strain P. falciparum parasites; assay: P. falciparum parasite proliferation, 3D7 strain; format: cell-based; conditions: Plasmodium falciparum, 3D7, 48 h, read-out: 3D7 parasite proliferation IC50
Kinetic solubility = format: physicochemical; conditions: phosphate buffered saline, pH 7.4, aqueous buffer, kinetic from dmso stock
[5] = tested on: HB3 strain P. falciparum parasites; assay: P. falciparum parasite proliferation, HB3 strain; format: cell-based; conditions: Plasmodium falciparum, HB3, read-out: HB3 parasite proliferation IC50
PfENT1 [6] = target: T1, PfENT1; assay: Yeast Kill Assay; format: cell-based; remark: listed apart in the source
PbENT1 = PbENT1 (Plasmodium berghei, UniProt A0A509AYF4); assay: [3H]adenosine uptake into PbENT1-expressing yeast; format: cell-based
PbENT1, sequence (A0A509AYF4 whole entry): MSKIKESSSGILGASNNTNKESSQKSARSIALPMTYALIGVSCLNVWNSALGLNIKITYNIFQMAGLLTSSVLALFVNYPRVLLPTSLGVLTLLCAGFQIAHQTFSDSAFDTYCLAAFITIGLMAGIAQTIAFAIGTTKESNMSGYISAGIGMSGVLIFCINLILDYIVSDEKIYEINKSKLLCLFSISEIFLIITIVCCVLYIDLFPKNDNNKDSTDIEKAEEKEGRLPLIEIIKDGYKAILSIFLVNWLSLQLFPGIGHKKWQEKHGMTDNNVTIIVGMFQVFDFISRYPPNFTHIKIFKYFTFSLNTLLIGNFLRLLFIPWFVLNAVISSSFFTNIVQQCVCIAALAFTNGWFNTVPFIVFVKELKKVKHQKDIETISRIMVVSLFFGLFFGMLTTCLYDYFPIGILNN

[7] = tested on: PfENT1-KO (pfent1Δ) parasites in the Dd2 background; assay: P. falciparum parasite proliferation, PfENT1-knockout; format: cell-based, Plasmodium falciparum; conditions: for IC50: Plasmodium falciparum, DD2, read-out: PfENT1-KO parasite proliferation IC50
PfENT1 [8] = target: T1, PfENT1; assay: Yeast HTS Growth Assay
[9] = tested on: Dd2 strain P. falciparum parasites; assay: P. falciparum parasite proliferation, Dd2 strain; format: cell-based, Plasmodium falciparum
in vitro = format: cell-based; conditions: human
[10] = tested on: 7G8 strain P. falciparum parasites; assay: P. falciparum parasite proliferation, 7G8 strain; format: cell-based; conditions: Plasmodium falciparum, 7G8, read-out: 7G8 parasite proliferation IC50
PvENT1 = PvENT1 (Plasmodium vivax, UniProt A5K8B0); assay: [3H]adenosine uptake into PvENT1-expressing yeast; format: cell-based
PvENT1, sequence (A5K8B0 whole entry): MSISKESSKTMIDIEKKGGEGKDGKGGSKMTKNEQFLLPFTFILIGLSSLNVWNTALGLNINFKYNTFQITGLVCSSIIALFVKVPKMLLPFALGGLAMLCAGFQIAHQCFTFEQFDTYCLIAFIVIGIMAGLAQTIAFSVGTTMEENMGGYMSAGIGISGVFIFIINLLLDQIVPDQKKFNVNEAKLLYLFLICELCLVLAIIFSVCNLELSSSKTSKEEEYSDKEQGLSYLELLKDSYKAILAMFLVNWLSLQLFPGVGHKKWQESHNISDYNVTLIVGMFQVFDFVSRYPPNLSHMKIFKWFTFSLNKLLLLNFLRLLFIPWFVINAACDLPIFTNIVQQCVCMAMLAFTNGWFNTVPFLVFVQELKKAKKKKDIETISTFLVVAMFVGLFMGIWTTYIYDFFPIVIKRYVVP

hFNT = target: T3, hFNT (Homo sapiens, UniProt Q8NBI5); assay: [3H]hypoxanthine uptake into human RBC; format: cell-based; conditions: mean ± SD; 15 minutes; NE = no effect at 100 μM
T3 sequence (Q8NBI5 1-491): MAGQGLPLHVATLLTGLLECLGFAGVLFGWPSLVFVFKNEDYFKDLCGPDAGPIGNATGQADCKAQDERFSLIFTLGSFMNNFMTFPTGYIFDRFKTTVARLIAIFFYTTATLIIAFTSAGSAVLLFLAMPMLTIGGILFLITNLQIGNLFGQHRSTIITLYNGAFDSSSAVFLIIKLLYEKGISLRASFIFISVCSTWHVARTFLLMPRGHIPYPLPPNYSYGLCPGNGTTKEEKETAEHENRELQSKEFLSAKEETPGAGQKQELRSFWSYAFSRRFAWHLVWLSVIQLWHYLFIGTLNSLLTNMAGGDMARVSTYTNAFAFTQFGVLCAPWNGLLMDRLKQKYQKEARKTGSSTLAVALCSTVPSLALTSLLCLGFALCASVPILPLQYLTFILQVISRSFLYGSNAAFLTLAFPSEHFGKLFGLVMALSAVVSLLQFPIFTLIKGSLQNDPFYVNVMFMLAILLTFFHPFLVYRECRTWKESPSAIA

[11] = Plasmodium falciparum, DD2, read-out: Dd2 parasite proliferation IC50, mean ± SD

Structure (SMILES) | PFI (Property Forecast Index) | IC50 (PfENT1 [2]) | HSA Column binding (human serum albumin) | IC50 (PfENT1 [3]) | IC50 (hENT1) | IC50 [4] | solubility at 1 h (Kinetic solubility) | IC50 [5] | IC50 (PfENT1 [6]) | IC50 (PbENT1) | IC50 [7] | EC50 (PfENT1 [8]) | IC50 [9, 11] | IC50 at 48 h (in vitro) | IC50 [10] | IC50 (PvENT1) | hFNT [3H]hypoxanthine uptake into RBC IC50 (hFNT) | also measured
O=c1[nH]c(=O)n([C@@H]2O[C@H](CO)[C@@H](O)[C@H]2O)cc1F [5-FUrd, 5-fluorouridine] | – | – | – | – | – | – | – | – | – | – | – | – | – | – | – | – | – | IC50 [1]: 4800 nM
COc1ccc(-c2nc(C(=O)Nc3cccc(-c4nnc5n4CCCCC5)c3)cs2)cc1OC [GSK-1, 2-(3,4-Dimethoxyphenyl)-N-[3-(6,7,8,9-tetrahydro-5H-[1,2,4]triazolo[4,3-a]azepin-3-yl)phenyl]-1,3-thiazole-4-carboxamide] | 8.8 | 540 ± 200 nM | 94% | 120 ± 80 nM | 990 ± 810 nM | 780 ± 200 nM | 10.5 µg/mL (≈ 22.1 µM) | 340 ± 100 nM | 630 nM | 130 ± 50 nM | 17000 ± 4800 nM | 3160 nM | 110 ± 9 nM | > 100000 nM | 480 ± 200 nM | 140 ± 70 nM | – | –
CCc1nnc(NC(=O)c2nc(-c3ccc(Cl)cc3)n3c2CCCCC3)s1 [GSK-2, 3-(4-Chlorophenyl)-N-(5-ethyl-1,3,4-thiadiazol-2-yl)-6,7,8,9-tetrahydro-5H-imidazo[1,5-a]azepine-1-carboxamide] | 9.6 | 110 ± 40 nM | 97% | 30 ± 30 nM | 24500 ± 24800 nM | 2250 ± 400 nM | 2.5 µg/mL (≈ 6.22 µM) | 3550 ± 700 nM | < 80 nM | 50 ± 30 nM | 2660 nM | 250 nM | 1890 ± 200 nM | > 100000 nM | 4520 ± 100 nM | 40 ± 30 nM | did not inhibit | –
O=C(Nc1ccccc1C(=O)NC1CC1)c1cccc(N2CCCC2=O)c1 [GSK-3, N-Cyclopropyl-2-{[3-(2-oxo-1-pyrrolidinyl)benzoyl]amino}benzamide] | 6 | 460 ± 300 nM | 84% | 30 ± 10 nM | 72400 ± 19300 nM | 2380 ± 500 nM | 112 µg/mL (≈ 308 µM) | 2210 ± 600 nM | 630 nM | 70 ± 40 nM | – | 2510 nM | 590 ± 50 nM | > 100000 nM | 6080 ± 1300 nM | 40 ± 10 nM | – | PfENT1-KO parasite proliferation IC50 ([7]; 75 μM hypoxanthine, NE = no effect at 74.2 μM, N=1 for GSK-2 and GSK-5): Low activity/NE^e
Cc1oc(-c2ccccc2)nc1C(=O)NCCN1CCCCCC1=O [GSK-4, 5-Methyl-N-[2-(2-oxo-1-azepanyl)ethyl]-2-phenyl-1,3-oxazole-4-carboxamide] | 6.5 | 430 ± 300 nM | 92% | 20 ± 10 nM | 51000 ± 27700 nM | 6200 ± 1900 nM | 156 µg/mL (≈ 457 µM) | 6160 ± 2500 nM | 1260 nM | 10 ± 10 nM | 29400 ± 500 nM | 3980 nM | 1900 ± 400 nM | > 100000 nM | 8440 ± 2400 nM | 20 ± 40 nM | did not inhibit | –
CC(=O)Nc1nc(-c2c(F)cccc2F)cs1 [GSK-5, N-[4-(2,6-Difluorophenyl)-1,3-thiazol-2-yl]acetamide] | 5.7 | 4000 ± 1300 nM | 90% | 2590 ± 2360 nM | – | 8720 ± 1600 nM | 16 µg/mL (≈ 62.9 µM) | 9090 ± 4500 nM | 6310 nM | 3090 ± 2700 nM | 10800 nM | 63100 nM | 10600 ± 2100 nM | > 100000 nM | 16100 ± 5500 nM | 2710 ± 250 nM | – | hENT1 [3H]adenosine uptake into RBC IC50 (hENT1): did not inhibit; also recorded: Low activity/NE^d
CCn1cnnc1C1CCN(C(=O)c2cn3ccc(C)cc3n2)CC1 [GSK-6, [4-(4-Ethyl-4H-1,2,4-triazol-3-yl)-1-piperidinyl](7-methylimidazo[1,2-a]pyridin-2-yl)methanone] | 4.2 | 1200 ± 1100 nM | 48% | 3980 ± 1350 nM | – | 10300 ± 4700 nM | > 133 µg/mL | 19700 ± 4100 nM | 1260 nM | – | > 100000 nM | 10000 nM | 1890 nM | > 100000 nM | 19000 ± 3500 nM | – | did not inhibit | hENT1 [3H]adenosine uptake into RBC IC50 (hENT1): did not inhibit; PbENT1 [3H]Ado uptake IC50 (PbENT1; mean ± SD, yeast expressing P. berghei ENT1, NE = no effect at 100 μM): did not inhibit; IC50 ([9]; read-out: Dd2 parasite proliferation IC50, mean ± SD): 3300 ± 1700 nM; PvENT1 [3H]Ado uptake IC50 (PvENT1; mean ± SD, yeast expressing P. vivax ENT1, NE = no effect at 100 μM): did not inhibit

Reference: publication PMC7171677 (ACS infectious diseases, 2019)
